ChEMBL document CHEMBL3244275, “Synthesis and antitumor activity of 1,2-dihydro-1-(2-deosy-beta-D-erythro-pentofuranosyl)-2-oxo-5-methylpyrazine 4-oxide, a structural analogue of thymidine” (J Med Chem, 1977)

Experiments:
L1210 [1] = assay: Growth inhibition of mouse L1210 cells at 9 x 10^-7 M after 40 hrs by trypan blue exclusion assay; assay type: functional; settings: L1210, 40 h, read-out: GI
Enterococcus faecium = assay: Antibacterial activity against Streptococcus faecium at 8 x 10^-5 M; assay type: functional; settings: read-out: GI
Escherichia coli [2] = assay: Antibacterial activity against Escherichia coli at 1 x 10^-3 M; assay type: functional; settings: read-out: GI
Escherichia coli [3] = assay: Antibacterial activity against Escherichia coli K-12 at 1 x 10^-3 M; assay type: functional; settings: read-out: GI
L1210 [4] = assay: Antitumor activity against mouse L1210 cells allografted in DBA/2 Ha mouse assessed as increase in life span of host at 100 mg/kg, ip qd for 6 days relative to control; assay type: functional; settings: route intraperitoneal
L1210 [5] = assay: Antitumor activity against mouse L1210 cells allografted in DBA/2 Ha mouse assessed as increase in life span of host at 200 mg/kg, ip qd for 6 days relative to control; assay type: functional; settings: route intraperitoneal
L1210 [6] = assay: Antitumor activity against mouse L1210 cells allografted in DBA/2 Ha mouse assessed as increase in life span of host at 400 mg/kg, ip qd for 6 days relative to control; assay type: functional; settings: route intraperitoneal
Mus musculus = assay: Toxicity in mouse L1210 cells allografted DBA/2 Ha mouse assessed as overt signs of toxicity at 100 to 400 mg/kg, ip qd for 6 days; assay type: organism-based; design: dose 100-400 mg/kg, route intraperitoneal; settings: in vivo, 144 h
L1210 [7] = assay: Growth inhibition of mouse L1210 cells at inhibitor/thymidine ratio 50 after 40 hrs by trypan blue exclusion assay; assay type: functional
L1210 [8] = assay: Growth inhibition of mouse L1210 cells at inhibitor/deoxyuridine ratio 2 after 40 hrs by trypan blue exclusion assay; assay type: functional
L1210 [9] = assay: Growth inhibition of mouse L1210 cells at inhibitor/deoxycytidine ratio 0.2 after 40 hrs by trypan blue exclusion assay; assay type: functional
L1210 [10] = assay: Growth inhibition of mouse L1210 cells at inhibitor/uridine ratio 0.04 after 40 hrs by trypan blue exclusion assay; assay type: functional
L1210 [11] = assay: Growth inhibition of mouse L1210 cells at inhibitor/cytidine ratio 0.02 after 40 hrs by trypan blue exclusion assay; assay type: functional

Cc1cn([C@H]2C[C@H](O)[C@@H](CO)O2)c(=O)c[n+]1[O-]
inhibition of growth at 0.9 µM (L1210 [1]): 50% | inhibition of growth at 80 µM (Enterococcus faecium): 50% | inhibition of growth at 1000 µM (Escherichia coli [2]): 20% | inhibition of growth at 1000 µM (Escherichia coli [3]): 30% | Activity (L1210 [4]): 18% | Activity (L1210 [5]): 30% | Activity (L1210 [6]): 55% | Activity (Mus musculus): Non-toxic | growth inhibition (GI) (L1210 [7]): 50% | growth inhibition (GI) (L1210 [8]): 50% | growth inhibition (GI) (L1210 [9]): 50% | growth inhibition (GI) (L1210 [10]): 50% | growth inhibition (GI) (L1210 [11]): 50%
